For 65 molecules, melting point results are on record in a melting point compilation (Tetko et al.; mined from patent text by program, amines drawn as free bases though some values may be those of a salt).

A value given as a limit tells only on which side of the number the result lay.

With `O=c1[nH]c2cc(Cl)ccc2c(O)c1Sc1ccc([N+](=O)[O-])cc1`, the melting point (as a rule, the temperature of the solid-liquid transition) was greater than 300 °C.

Regarding `COC(=O)C1=Cc2cc(-c3ccc(OC)cc3)ccc2S(=O)(=O)CC1`, the melting point fell in the range of 191 to 193 °C.

Turning to `O=C(NCCN1CCN(C(c2ccc(F)cc2)c2ccccn2)CC1)C1CSC(c2cccnc2)N1` (stereo not given), the melting point lay within 144 to 146 °C.

`Cc1cc2c(s1)c(=O)c(S(C)=O)cn2C` (stereo not given) gave a melting point of 263 to 264 °C.

Turning to `O=C(O)c1cccc(OC(Cl)=CCl)c1`, the melting point lay within 137 to 141 °C.

As to `Cc1nc(C#N)ccc1N`, the melting point fell in the range of 192 to 196 °C.

Consider `O=c1oc2ccc(O)cc2c(O)c1-c1ccccc1`, for which the melting point was in the range of 261 to 263 °C.

`COc1cc(Nc2nc3cccc(-c4ccc(N)cc4)c3o2)cc(OC)c1OC`: the melting point was in the range of 192 to 196 °C.

On to `CCOC(=O)c1c(C)nc(N2CCN(c3ccccc3)CC2)c2nccnc12`, for which the melting point was 85 to 87 °C.

For the molecule `CCCc1c(OCCCCCC(=O)c2ccc(OC)c(OC)c2)ccc(C(=O)O)c1O`, the melting point fell in the range of 114 to 117 °C.

Consider `O=c1cc(-c2ccncc2)nc2n1CCCCC2`, for which the melting point was 148 to 150 °C.

The molecule `FC(F)c1nc2ccccc2n1-c1nc(Nc2ccccn2)nc(N2CCOCC2)n1` returned a melting point of 230 to 232 °C.

In turn, `COC(=O)c1cccc(Nc2nc(Cl)nc3[nH]cnc23)c1` returned a melting point of 242 °C.

Take `CN1Cc2cccc(S(N)(=O)=O)c2S1(=O)=O`: the melting point fell in the range of 195 to 197 °C.

In turn, `CC1CC(=O)c2cc(OCc3ccccc3)cnc2C1` (stereo not given) came in with a melting point of 80.5 to 81.5 °C.

`COc1ccc2c(c1)C(c1ccccc1)NN=C2Cc1c(Cl)cncc1Cl` (stereo not given): the melting point lay within 175 to 177 °C.

Regarding `Cc1cccc(NCC(=O)Nc2ccc(S(N)(=O)=O)cc2Cl)c1`, the melting point is 185 to 189 °C.

Consider `COc1ccc(Sc2ccc3c(c2)OCC(=O)N3)cc1OC`, for which the melting point fell in the range of 97 to 98 °C.

`Fc1ccc(N2CCN(Cc3c[nH]c4ncccc34)CC2)cc1` registered a melting point of 214 to 216 °C.

In turn, `COc1ccc(-c2ccc3c(n2)CCC(C)(C)C3=O)cc1` yielded a melting point of 158 to 159 °C.

As for `O=C(O)CN(CCCCC(C(=O)O)N(CC(=O)O)CC(=O)O)CC(=O)O` (stereo not given), the melting point fell in the range of 216 to 220 °C.

The molecule `CNc1nc(N=[N+]=[N-])ncc1C#N` registered a melting point of 225 to 230 °C.

On to `CCOC(=O)CNc1ccc2c(c1)CCC2`, for which the melting point came out at 49 °C.

On to `COc1ccc(N2CCCN(/C(C)=C(/C#N)C(N)=S)CC2)cc1`, for which the melting point was in the range of 157 to 158 °C.

The molecule `O=[N+]([O-])c1ccc(Cl)c(Cl)c1Br` showed a melting point of 73 °C.

Consider `CS(=O)(=O)Nc1cccc(C=C2c3ccc(Cl)cc3CCc3cc(Cl)ccc32)c1`, for which the melting point amounted to 182 °C.

For the molecule `CSC1C(=O)Nc2cccc(-c3ccccc3)c21` (stereo not given), the melting point fell in the range of 182 to 185 °C.

In turn, `CCC1(CC)C(=O)NC(C)(C)C(C)(C)N1OC(C)(C)C#N` had a melting point of 140 to 145 °C.

`Cc1cc(Cc2cc(C(C)(C)C)cc(C(C)(C)C)c2O)c(O)c(-n2nc3ccccc3n2)c1` yielded a melting point of 171 °C.

`CCOC(=O)c1cn(Cc2ccccc2)nc1OCc1ccc(OCc2nc(-c3ccco3)oc2C)c(OCOC)c1` gave a melting point of 120 to 121 °C.

Molecule `CC(=O)OC(CCl)c1cccnc1S(N)(=O)=O` (stereo not given) registered a melting point of 146 to 147 °C.

The molecule `COc1cc(Nc2nc3cccc(-c4ccc(CNC(C)=O)cc4)c3o2)cc(OC)c1OC` had a melting point of 237 to 239 °C.

Regarding `CC(C)(C)c1ccc(Nc2ncc(-c3ccnc(Cl)n3)c3ccccc23)cc1`, the melting point lay in the range of 257 to 258 °C.

The molecule `CC(CCCC(=NO)C(=O)O)(c1ccc(OCc2ccc3ccccc3n2)cc1)c1ccc(OCc2ccc3ccccc3n2)cc1` yielded a melting point of 78 to 80 °C.

`CN1C(=O)CC[C@]2(C)c3ccc(C=Cc4ccc5ccccc5n4)cc3CC[C@@H]12` had a melting point of 233 to 236 °C.

As to `Cc1ccc(SCC(CCC(=O)O)C(=O)O)cc1C` (stereo not given), the melting point was in the range of 96 to 98 °C.

As to `CCCCCCCCCCCCCCCCCCCCCC(=O)NN`, the melting point was found to be 117 °C.

`CCCOc1ccc(F)c2c1c(CCN(C)C)cn2CC` registered a melting point of 49 to 50 °C.

As for `O=C1N(Cc2cccc(OC(F)(F)F)c2)c2ccccc2C12COc1cc3c(cc12)OCO3` (stereo not given), the melting point lay within 88 to 91 °C.

Molecule `CCCC(=O)C(=CNc1ccc(OC(=O)c2ccccc2)cc1OC)C(=O)OCC` gave a melting point of 85 to 87 °C.

The molecule `O=Cc1cc(-c2ccc(F)cc2F)ccc1OC(F)(F)F` showed a melting point of 39 to 41 °C.

`COc1ccc2c(=O)[nH]c(-c3ccc(OCCO)c(-c4ccc(S(C)=O)cc4)n3)nc2c1` (stereo not given) yielded a melting point of 266 to 267 °C.

In turn, `Oc1ccc(CC2NCCC3=C2CCCC3)cc1` (single isomer, unassigned; (+)) had a melting point of 154 to 156 °C.

`Cc1cc(-c2nc(CCl)co2)sc1Br` came in with a melting point of 71 to 72 °C.

Regarding `COC1(c2ccc(C(F)(F)F)cc2CN(Cc2cc(C(F)(F)F)cc(C(F)(F)F)c2)c2nnn(C)n2)CCCCCC1`, the melting point lay within 103 to 104 °C.

Molecule `CP(C)(=O)c1ccc(C(=O)O)cc1` had a melting point of 101 °C.

In the case of `Cn1c(CCNC(=O)C(F)(F)F)cc2ccccc21`, the melting point was 124 to 126 °C.

Take `CCCCC1CCc2c(OCc3ccc4ccccc4n3)cccc2C1=O` (stereo not given): the melting point lay in the range of 97 to 98 °C.

Turning to `CC(CS(=O)(=O)c1ccccc1)C1CCC2C3CC=C4CC(O)CC(O)C4(C)C3CCC12C` (stereo not given), the melting point was 214 °C.

As to `COc1cc(OC)c(-c2csc(NC(=O)c3cc4ccccc4[nH]3)n2)c(OC)n1`, the melting point fell in the range of 285 to 287 °C.

For the molecule `Cc1ccc(-c2ccc(Sc3ccccc3)s2)cc1`, the melting point is 85 to 86 °C.

In the case of `Cc1ccc(CNc2ncnc3c(N4CCOCC4)nc(N4CCC(N(C)C)CC4)nc23)cc1`, the melting point was 142 to 144 °C.

Consider `CCN(CC)Cc1ccc(C(N)=O)o1`, for which the melting point was 164 to 165 °C.

`CON=C(C)c1c(C)sc(C)c1CS(=O)(=O)C1=NOC(C)(C)C1` displayed a melting point of 95 to 96 °C.

`O=C1NC(=O)C(CCCc2ccc(O)cc2)O1` (stereo not given) returned a melting point of 132 to 133 °C.

`CN(C)CC1CCN(c2nc(N3CCCCC3)c3ncnc(N(C)Cc4cccc5ccccc45)c3n2)CC1`: the melting point is 150 to 151 °C.

`Nc1c(CC(=O)O)cc(Cl)cc1Oc1ccccc1F` had a melting point of 154 to 156 °C.

`OC12N=C(c3ccccc3)SC1(Br)Cc1cc(Cl)ccc12` (stereo not given) showed a melting point of 148 °C.

For the molecule `CNc1c(OC)cc(C(=O)CS(C)(=O)=O)cc1OC`, the melting point is 98 to 99 °C.

As to `CN=C1SCC(O)(C(c2ccccc2)c2ccccc2)N1C` (stereo not given), the melting point was 133 to 136 °C.

`O=C(O)C(Cc1cccnc1)C(=O)O` had a melting point of 128 to 129 °C.

For `CC1(Cc2ccccc2)CCNC1=O` (stereo not given), the melting point lay in the range of 89 to 90 °C.

In the case of `CCSc1nc(-c2ccco2)c2ncn(Cc3ccc(OC)cc3)c2n1`, the melting point fell in the range of 116 to 117 °C.

`CCN(CC)c1ccc(-c2cc(-c3ccc(C(=O)O)cc3)ccc2CCCNC2CC2)cc1C(C)(C)C`: the melting point was determined as 189 °C.

Molecule `CC(=O)N1CCC(C(=O)c2ccc(Br)cc2F)CC1` came in with a melting point of 111 to 113 °C.
